According to US20160287536A1, “Composition” (THE UNIVERSITY OF NOTTINGHAM, priority 2013, published 2016):
“And” between values parts separate entries of the source, which are not always exact repeats. Identical values can stand only once. Like-named read-outs stand apart in the source and are kept apart here.

How the values were obtained:
Format in all cases: cell-based
[1] = system: human isolated mesenteric vein; test: Wire myography, human isolated mesenteric (colonic/rectal) vein (HMV); details: for effect on potency of noradrenaline: 10 nM prazosin, 30 nM RX811059; for EC50: Homo sapiens
From the text: (§1) After obtaining approval from the local research ethics committee (Reference number: 05/Q2403/171) and having written consent from the patient, human mesenteric (colonic or rectal) vessels were collected from patients who underwent colectomy and/or proctectomy at the Division of Gastrointestinal Surgery, Queen's Medical Centre, University of Nottingham, UK, between August 2009 and March 2010. Patients with a history of previous abdominal/pelvic radiotherapy, and patients with endocrine tumours or concomitant intraabdominal infection were excluded from this study. In an operating room, the mesentery containing the required segment of blood vessels was dissected from the whole surgical specimen immediately after it was removed from a patient. The tissue was then kept in a 100-ml pot containing pre-oxygenated Krebs-Henseleit buffer solution maintained at 4° C. until used. No experiments were conducted on tissue stored for more than 12 hours after dissection. The Krebs solution consisted of 118.4 mM NaCl, 4.7 mM KCl, 1.2 mM MgSO4, 1.2 mM KH2PO4, 1.25 mM CaCl2, 24.9 mM NaHCO3, and 11.1 mM glucose.
Before setting a wire myography experiment, human mesenteric (colonic/rectal) vessels were meticulously dissected from the surrounding mesenteric fatty tissue. The ‘clean’ vessel was then divided into 5-mm ring segments. Generally, the internal diameter of vessels ranged between 400-1000 μm for human mesenteric artery (HMA) and 500-1200 μm for human mesenteric vein (HMV). Each 5-mm ring segment was suspended between two 200-μm wire supports in an organ bath containing 20 ml Krebs-Henseleit buffer solution. The contractile study of human mesenteric vessels was then set in the similar manner of the previous study on sheep isolated rectal vessels.
After a 20-minute equilibration period, an initial resting tension of 8 and 1 gram weight (g wt) was gradually applied to arterial and venous ring segments, respectively, and left to relax for 30 minutes. The final resting tension varied between 1.8 g wt and 3.2 g wt for HMA, and between 0.07 g wt and 0.35 g wt for HMV. Once the vascular segments were fully settled, they were tested for contractile activity with 60 mM KCl three occasions, and an agonist concentration-response curves (CRC) was then reconstructed after the vessels were left to equilibrate for 60 minutes as previously described for sheep rectal vessels. […] In the case of noradrenaline study, 10 μM cocaine was added into the organ bath 40 minutes prior to the administration of noradrenaline for inhibiting the uptake of noradrenaline by neural tissue within the vascular wall (re-uptake 1) (Westfall & Westfall, 2006 In Goodman & Gilman's the Pharmacological Basis of Therapeutics. eds Brunton, L. L., Lazo, J. S. & Paker, K. L. pp. 137-181. New York: McGraw Hill).
Although it appeared that the CRCs of several vasoconstrictors were reproducible (no significant change in maximum response and agonist potency) in human mesenteric vessels, a single CRC, paired segment approach was adopted throughout the study of human blood vessels. This was due to a desire to limit the time of tissue storage and the ease of tissue preparation. The single CRC, paired segment approach involves the generation of only one agonist CRC per tissue. The maximum response (Emax) and pEC50 (defined as the negative logarithm of the concentration required to produce 50% of the maximum response) of each vascular segment were compared to those of other vascular segments (adjacent segments from the same patient, or other segments from different patients).
If the vessel had spontaneous and periodic contraction after the administration of S(−)-BayK8644—which occurred in 70% of HMA and 80% of HMV, the effect of agonist would be considered when there was an increase in the frequency of contraction as well as a rise in the baseline of vascular tone.
The selective α1-adrenoceptor antagonist prazosin and selective α2-adrenoceptor antagonist RX811059 were used in this study. […]

[2] = system: sheep isolated rectal vein; test: Wire myography, sheep isolated rectal vein (SRV); details: for rightward shift of the CRC for noradrenaline: prazosin 10 nM, RX811059 30 nM
Protocol: (§2) Sheep mesenteric tissue, from the distal sigmoid colon to the anus, was obtained from a local abattoir. The sheep tissue was delivered in a dry bag and stored at 4° C. until dissected. The bundle of sheep rectal vessels was dissected from its mesentery within four hours of arrival from the abattoir. The vascular bundle was then kept in the pre-oxygenated Krebs-Henseleit buffer solution at 4° C. until used (on the same day as a preferential method or on the following day after storage overnight). No experiments were conducted on tissue stored for more than 24 hours after dissection. The Krebs solution consisted of 118.4 mM NaCl, 4.7 mM KCl, 1.2 mM MgSO4, 1.2 mM KH2PO4, 1.25 mM CaCl2, 24.9 mM NaHCO3, and 11.1 mM glucose.
(§3) Before setting a wire myography experiment, the remaining loose connective tissue was meticulously removed from the rectal vessels. The internal diameter of sheep isolated rectal artery and vein was 450-650 μm and 500-1000 μm, respectively. Each 5-mm ring segment of the ‘clean’ vessels was then suspended between two 200-μm wire supports in an organ bath containing 20 ml Krebs-Henseleit buffer solution. The upper supporting wire was attached to an isometric force transducer, while the lower wire was fixed steadily to a clamped glass rod. The bath solution was maintained at 37° C., and continuously gassed with 95% O2 and 5% CO2. Isometric tension was continuously recorded using a PowerLab 4/25 via QUAD Bridge amplifier (ADInstruments, Inc, Australia).
(§4) After a 10-minute equilibration period, an initial tension of 8 gram weight (g wt) was gradually applied for an arterial segment and left to relax for 30 minutes. The final tension of SRA varied between 1.0 g wt and 2.8 g wt. For a venous segment, an initial tension of 1 g wt was applied and, 10 minutes later, the resting tension was finally re-adjusted to reach a tension of 0.5 g wt. Then the vein was left to relax for further 20 minutes. The final tension of SRV ranged from 0.08 to 0.25 g wt. Once the vascular segments were fully settled, the tissues were tested for contractile activity with 60 mM KCl on three occasions. The vascular contraction was allowed to reach maximum, which generally took about 1-4 minutes. Each KCl challenge was followed by two washouts of 37° C. Krebs solution and the tissues were allowed to rest for 20 minutes between the challenges. The maximum contraction (tension) produced by the third administration of 60 mM KCl was used as a reference contraction to which subsequent responses were compared. After the final (3rd) KCl challenge, the tissues were washed and left for 60 minutes before α-adrenoceptor agonist was administrated. To construct an agonist concentration-response curves (CRC), 0.3-0.4 log 10 increments of agonist solution was added e.g. at the agonist concentration of 100 nM, 200 nM, 500 nM, 1 μM, 2 μM, 5 μM, and so on. Each response was allowed to reach equilibrium or plateau before the next dose of agonist was added. The maximal response to the agonist was considered when no further increase in response occurred upon the addition of two or more consecutive doses of agonist.
(§5) In the case of the noradrenaline study, 10 μM cocaine was added into the organ bath 40 minutes prior to the administration of noradrenaline for inhibiting the uptake of noradrenaline by neural tissue within the vascular wall (re-uptake 1) (Westfall & Westfall, 2006 In Goodman & Gilman's the Pharmacological Basis of Therapeutics. eds Brunton, L. L., Lazo, J. S. & Paker, K. L. pp. 137-181. New York: McGraw Hill). Regarding KCl-induced vasoconstriction, the CRC was generated by the contractile response to 6 mM increments of KCl solution, starting from 0 mM to 60 mM.
(§6) Consecutive CRCs were generated to each agonist, separated by 60 minutes, and if there was no difference in the maximum response (Emax) and pEC50 (defined as the negative logarithm of the concentration required to produce 50% of the maximum response) then a paired CRC protocol was used throughout. […]

[3] = system: human isolated mesenteric artery; test: Wire myography, human isolated mesenteric (colonic/rectal) artery (HMA)
From the text: as §1
Before setting a wire myography experiment, human mesenteric (colonic/rectal) vessels were meticulously dissected from the surrounding mesenteric fatty tissue. The ‘clean’ vessel was then divided into 5-mm ring segments. […]

[4] = system: sheep isolated rectal artery; test: Wire myography, sheep isolated rectal artery (SRA); details: for effect on the noradrenaline CRC: prazosin 0.4-10 nM, RX811059 30 nM; for spontaneous contraction: sheep isolated rectal vessels, 10 μM
Protocol: as §2, §3, §4, §5, §6

[5] = Ovis aries, SRV, 10 nM prazosin / 30 nM RX811059 against noradrenaline
[6] = with 10 nM prazosin and 30 nM RX811059
[7] = Ovis aries, SRV, agonist alone (control)

In the case of COc1cc2nc(N3CCN(C(=O)c4ccco4)CC3)nc(N)c2cc1OC [prazosin], the “effect on potency of noradrenaline” value [1] is reported as “significantly reduced the potency of noradrenaline”, the Kb [2, 5] is reported as 0.00017 µM and the “rightward shift of the CRC for noradrenaline” value ([2]; SRV) is reported as 70 fold. It also gave a Kb ([3]; Homo sapiens, noradrenaline-induced contractions) of 0.000316 µM, a Kb ([4]; Ovis aries, SRA and SRV, contraction to noradrenaline (summary)) of 0.000158 to 0.000398 µM and a Kb ([4]; Ovis aries, SRA, 2 nM prazosin against noradrenaline-induced contraction) of 0.000398 µM. The “effect on the noradrenaline CRC” value ([4]; SRA) was “concentration-dependent, parallel rightward shift”.

COC(=O)C1=C(C)NC(C)=C([N+](=O)[O-])[C@H]1c1ccccc1C(F)(F)F [S(−)-BayK8644, (4S)-1,4-dihydro-2,6-dimethyl-5-nitro-4-[2-(trifluoromethyl)-phenyl]-3-pyridine carboxylic acid methyl ester] was tested, and the “vessels with spontaneous phasic contraction” value ([1]; 1 μM) was 80% and 83%, the “effect on potency of noradrenaline” value ([2]; SRV, 1 μM) was “significantly increased the potency” and the “vessels with spontaneous phasic contraction” value ([3]; 1 μM) was 70% and 71%. The “effect on 5-HT-induced contraction” value ([4]; SRA and SRV, 1 μM) was “no effect”, the “effect on potency of KCl” value ([4]; SRA, 1 μM) was “significantly increased the potency” and the “observations with spontaneous contraction” value ([4]; SRA, 1 μM) was 6%.

With N=C(N)NC(=O)Cc1c(Cl)cccc1Cl [guanfacine] the EC50 ([1]; control) was 2.24 µM, the EC50 ([1]; with 10 nM prazosin) was 2.45 µM and the EC50 [1, 6] was 6.46 µM. For the same compound, the EC50 ([1]; with 30 nM RX811059) was 5.25 µM, the Emax ([1]; control) was 31.4±4.1 percentage of the contraction and the Emax ([1]; with 10 nM prazosin) was 18.4±4.1 percentage of the contraction. The Emax [1, 6] was 20.3±8.5 percentage of the contraction, the Emax ([1]; with 30 nM RX811059) was 33.0±4.1 percentage of the contraction and the EC50 [2, 7] was 0.398 µM. For the same compound, the EC50 ([2]; Ovis aries, SRV, in the presence of 10 nM prazosin and 30 nM RX811059) was 0.912 µM, the EC50 ([2]; Ovis aries, SRV, in the presence of 1 μM S(−)-BayK8644) was 0.229 µM and the Emax ([2]; Ovis aries, SRV, read-out: maximum response relative to maximum response to noradrenaline) was 45%. The “contractile response” value ([2]; SRV) was “concentration-dependent contractions”, the Emax ([2]; SRV, agonist alone (control)) was 54.7±8.1 percentage of the contraction and 37.0±6.6 percentage of the contraction and the pEC50 ([2]; SRV, agonist alone (control)) was 6.58±0.07 and 6.48±0.11. For the same compound, the Emax ([2]; SRV, in the presence of 10 nM prazosin and 30 nM RX811059) was 31.3±4.2 percentage of the contraction, the Emax ([2]; SRV, in the presence of 1 μM S(−)-BayK8644) was 72.8±9.0 percentage of the contraction and the EC50 ([4]; Ovis aries, SRA, agonist alone) was 0.794 µM. For the same compound, the Emax ([4]; Ovis aries, SRA, read-out: maximum response relative to maximum response to noradrenaline) was about 20% and the “contractile response” value ([4]; SRA) was “concentration-dependent contractions”.

CCOC1(C2=NCCN2)COc2ccccc2O1 (stereo not drawn) [RX811059, 2-(2-ethoxy-1,4-benzodioxan-2-yl)-2-imidazoline] was tested, and the “effect on potency of noradrenaline” value [1] was “significantly reduced the potency of noradrenaline”, the “parallel rightward shift of CRC to guanfacine” value ([1]; 30 nM) was 2 fold and the Kb [2, 5] was 0.0138 µM. The pKB ([2]; SRV, 10 nM prazosin / 30 nM RX811059 against noradrenaline) was about 7.9, the “further rightward shift of the CRC for noradrenaline” value ([2]; SRV, 30 nM RX811059 added to 10 nM prazosin) was 1.6 fold and the “rightward shift of the CRC for noradrenaline” value ([2]; SRV) was 3 fold. The “effect on the noradrenaline CRC” value ([4]; SRA) was “no change”.

In the case of COc1ccc(OC)c(C(O)C(C)N)c1 [L-erythro methoxamine], the “contractile response” value ([2]; SRV) is reported as “concentration-dependent contractions”, the “contractile response” value ([4]; SRA) is reported as “concentration-dependent contractions” and the “maximum response as fraction of that to noradrenaline” value ([4]; SRA and SRV) is reported as “one-third”. The arterioselectivity ([4]; sheep rectal vessels, artery vs vein) was 3 fold.

For O=c1c(O)c(-c2cc(O)c(O)c(O)c2)oc2cc(O)cc(O)c12 [myricetin, 3,3′,4′,5,5′,7-hesahydroxyflavone], the “spontaneous contraction” value [4] was “no spontaneous contraction”.

NCCc1c[nH]c2ccc(O)cc12 [5-HT, 5-hydroxytryptamine] was tested, and the “contractile response” value ([2]; SRV) was “concentration-dependent contractions” and the “contractile response” value ([4]; SRA) was “concentration-dependent contractions”.

For [Cl-].[K+] [KCl], the “contractile response” value ([2]; SRV) was “concentration-dependent contractions”, the “mean contraction to 60 mM KCl” value ([2]; SRV, n=128) was 1.18±0.05 g wt and the “contractile response” value ([4]; SRA) was “sustained concentration-dependent contraction”. For the same compound, the “mean contraction to 60 mM KCl” value ([4]; SRA, n=119) was 3.14±0.09 g wt.

With NC[C@H](O)c1ccc(O)c(O)c1 [noradrenaline] the EC50 [2, 7] was 0.389 µM, the EC50 ([2]; Ovis aries, SRV, in the presence of 30 nM RX811059) was 1.26 µM and the “contractile response” value ([2]; SRV) was “concentration-dependent contractions”. For the same compound, the venoselectivity ([2]; sheep rectal vessels, vein vs artery) was 4 fold and the “contractile response” value ([4]; SRA) was “concentration-dependent contractions”.

For COc1ccc(-c2cc(=O)c3c(O)cc(O[C@@H]4O[C@H](CO[C@@H]5O[C@@H](C)[C@H](O)[C@@H](O)[C@H]5O)[C@@H](O)[C@H](O)[C@H]4O)cc3o2)cc1O [diosmin, 3′,5,7-trihydroxy-4′-methoxyflavone 7-rutinoside], the “spontaneous contraction” value [4] was “no spontaneous contraction”.
